ChEMBL document CHEMBL1201862, “PubChem BioAssay data set” (2004)
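96-well plates; 48 h exposure; 5 concentrations. Endpoints by linear interpolation between flanking doses. Not reached: highest tested concentration assigned. GI50: concentration for 50% inhibition of growth.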 Calls of active or inactive are those of the source. Rule as the data show it: active = GI50 up to about 1.1 µM and inactive = higher.

Columns and labels:
Assay in all cases: NCI anticancer screen, dose series, 48 h
OVCAR-3 = system: OVCAR-3
OVCAR-4 = system: OVCAR-4
SW-620 = system: SW-620
MDA-N = system: MDA-N
Hs-578T = system: Hs-578T
SNB-75 = system: SNB-75
IGROV-1 = system: IGROV-1
RXF 393 = system: RXF 393
786-0 = system: 786-0
MCF7 = system: MCF7
UACC-257 = system: UACC-257
CCRF-CEM = system: CCRF-CEM
EKVX = system: EKVX
OVCAR-8 = system: OVCAR-8
A549 = system: A549
NCI-H460 = system: NCI-H460
Malme-3M = system: Malme-3M
BT-549 = system: BT-549
M14 = system: M14
SK-OV-3 = system: SK-OV-3
NCI-H226 = system: NCI-H226
U-251 = system: U-251
LOX IMVI = system: LOX IMVI
CAKI-1 = system: CAKI-1
TK-10 = system: TK-10
COLO 205 = system: COLO 205
SK-MEL-2 = system: SK-MEL-2
MOLT-4 = system: MOLT-4
SK-MEL-5 = system: SK-MEL-5
HOP-62 = system: HOP-62
SF-539 = system: SF-539
NCI/ADR-RES = system: NCI/ADR-RES
SN12C = system: SN12C
HCC 2998 = system: HCC 2998
UACC-62 = system: UACC-62
NCI-H23 = system: NCI-H23
PC-3 = system: PC-3
HL-60 = system: HL-60
HT-29 = system: HT-29
MDA-MB-435 = system: MDA-MB-435
ACHN = system: ACHN
OVCAR-5 = system: OVCAR-5
HOP-92 = system: HOP-92
UO-31 = system: UO-31
A498 = system: A498
HCT-116 = system: HCT-116
SNB-19 = system: SNB-19
SR = system: SR
SK-MEL-28 = system: SK-MEL-28
HCT-15 = system: HCT-15
KM12 = system: KM12
MDA-MB-231 = system: MDA-MB-231
SF-295 = system: SF-295
NCI-H522 = system: NCI-H522
DU-145 = system: DU-145
RPMI-8226 = system: RPMI-8226
SF-268 = system: SF-268
K562 = system: K562
T47D = system: T47D

With `O=C(N/N=C1\C(=O)Nc2c(Cl)cc(Cl)cc21)C(=O)Nc1cccc(C(F)(F)F)c1` the GI50 (OVCAR-3) was > 100 µM (inactive), the GI50 (OVCAR-4) was > 100 µM (inactive) and the GI50 (SW-620) was > 100 µM (inactive). The GI50 (MDA-N) was 54 µM (inactive), the GI50 (Hs-578T) was > 100 µM (inactive) and the GI50 (SNB-75) was > 100 µM (inactive). For the same compound, the GI50 (IGROV-1) was > 100 µM (inactive), the GI50 (RXF 393) was > 100 µM (inactive) and the GI50 (786-0) was > 100 µM (inactive). The GI50 (MCF7) was > 100 µM (inactive), the GI50 (UACC-257) was > 100 µM (inactive) and the GI50 (CCRF-CEM) was > 100 µM (inactive). The GI50 (EKVX) was > 100 µM (inactive), the GI50 (OVCAR-8) was > 100 µM (inactive) and the GI50 (A549) was > 100 µM (inactive). The GI50 (NCI-H460) was > 100 µM (inactive), the GI50 (Malme-3M) was > 100 µM (inactive) and the GI50 (BT-549) was > 100 µM (inactive). For the same compound, the GI50 (M14) was > 100 µM (inactive), the GI50 (SK-OV-3) was > 100 µM (inactive) and the GI50 (NCI-H226) was > 100 µM (inactive). For the same compound, the GI50 (U-251) was 97.5 µM (inactive), the GI50 (LOX IMVI) was > 100 µM (inactive) and the GI50 (CAKI-1) was > 100 µM (inactive). For the same compound, the GI50 (TK-10) was > 100 µM (inactive), the GI50 (COLO 205) was > 100 µM (inactive) and the GI50 (SK-MEL-2) was > 100 µM (inactive). For the same compound, the GI50 (MOLT-4) was 85.1 µM (inactive), the GI50 (SK-MEL-5) was > 100 µM (inactive) and the GI50 (HOP-62) was > 100 µM (inactive). For the same compound, the GI50 (SF-539) was > 100 µM (inactive), the GI50 (NCI/ADR-RES) was > 100 µM (inactive) and the GI50 (SN12C) was > 100 µM (inactive). The GI50 (HCC 2998) was > 100 µM (inactive), the GI50 (UACC-62) was > 100 µM (inactive) and the GI50 (NCI-H23) was > 100 µM (inactive). The GI50 (PC-3) was > 100 µM (inactive), the GI50 (HL-60) was 62.8 µM (inactive) and the GI50 (HT-29) was > 100 µM (inactive). The GI50 (MDA-MB-435) was 45.5 µM (inactive), the GI50 (ACHN) was > 100 µM (inactive) and the GI50 (OVCAR-5) was > 100 µM (inactive). For the same compound, the GI50 (HOP-92) was > 100 µM (inactive), the GI50 (UO-31) was > 100 µM (inactive) and the GI50 (A498) was > 100 µM (inactive). For the same compound, the GI50 (HCT-116) was > 100 µM (inactive), the GI50 (SNB-19) was > 100 µM (inactive) and the GI50 (SR) was 34.4 µM (inactive). The GI50 (SK-MEL-28) was > 100 µM (inactive), the GI50 (HCT-15) was over 100 µM and the GI50 (KM12) was > 100 µM (inactive). The GI50 (MDA-MB-231) was 94.4 µM (inactive) and the GI50 (SF-295) was > 100 µM (inactive).

With `O=C(NCC(C(=O)OCc1ccccc1)C(=O)OCc1ccccc1)OCc1ccccc1` the GI50 (OVCAR-3) was > 100 µM (inactive), the GI50 (SW-620) was > 100 µM (inactive) and the GI50 (MDA-N) was > 100 µM (inactive). The GI50 (Hs-578T) was > 100 µM (inactive), the GI50 (SNB-75) was > 100 µM (inactive) and the GI50 (IGROV-1) was > 100 µM (inactive). The GI50 (RXF 393) was 77.4 µM (inactive), the GI50 (786-0) was > 100 µM (inactive) and the GI50 (MCF7) was 49.3 µM (inactive). The GI50 (NCI-H522) was 72.6 µM (inactive), the GI50 (UACC-257) was > 100 µM (inactive) and the GI50 (EKVX) was 72.3 µM (inactive). For the same compound, the GI50 (OVCAR-8) was > 100 µM (inactive), the GI50 (DU-145) was > 100 µM (inactive) and the GI50 (A549) was 63.8 µM (inactive). For the same compound, the GI50 (NCI-H460) was 94.6 µM (inactive), the GI50 (Malme-3M) was > 100 µM (inactive) and the GI50 (BT-549) was 38.8 µM (inactive). The GI50 (M14) was > 100 µM (inactive), the GI50 (SK-OV-3) was > 100 µM (inactive) and the GI50 (NCI-H226) was 50.4 µM (inactive). The GI50 (U-251) was 85.7 µM (inactive), the GI50 (CAKI-1) was > 100 µM (inactive) and the GI50 (TK-10) was > 100 µM (inactive). For the same compound, the GI50 (COLO 205) was > 100 µM (inactive), the GI50 (SK-MEL-2) was > 100 µM (inactive) and the GI50 (MOLT-4) was 19.2 µM (inactive). For the same compound, the GI50 (SK-MEL-5) was 35.9 µM (inactive), the GI50 (HOP-62) was > 100 µM (inactive) and the GI50 (SF-539) was > 100 µM (inactive). The GI50 (NCI/ADR-RES) was 42.6 µM (inactive), the GI50 (SN12C) was > 100 µM (inactive) and the GI50 (HCC 2998) was > 100 µM (inactive). For the same compound, the GI50 (UACC-62) was > 100 µM (inactive), the GI50 (NCI-H23) was 59.3 µM (inactive) and the GI50 (RPMI-8226) was > 100 µM (inactive). For the same compound, the GI50 (PC-3) was 35.4 µM (inactive), the GI50 (SF-268) was > 100 µM (inactive) and the GI50 (HT-29) was > 100 µM (inactive). The GI50 (MDA-MB-435) was > 100 µM (inactive), the GI50 (ACHN) was > 100 µM (inactive) and the GI50 (OVCAR-5) was > 100 µM (inactive). For the same compound, the GI50 (HOP-92) was > 100 µM (inactive), the GI50 (UO-31) was 47.9 µM (inactive) and the GI50 (SNB-19) was > 100 µM (inactive). The GI50 (SR) was 37.9 µM (inactive), the GI50 (SK-MEL-28) was > 100 µM (inactive) and the GI50 (HCT-15) was over 100 µM. For the same compound, the GI50 (K562) was 60.1 µM (inactive), the GI50 (KM12) was > 100 µM (inactive) and the GI50 (SF-295) was > 100 µM (inactive).

In the case of `O=c1cc(NNc2cccc(Cl)c2)[nH]c(=O)[nH]1`, the GI50 (OVCAR-3) is reported as 17.3 µM (inactive), the GI50 (OVCAR-4) is reported as > 100 µM (inactive) and the GI50 (SW-620) is reported as 18.1 µM (inactive). For the same compound, the GI50 (MDA-N) was 73.8 µM (inactive), the GI50 (Hs-578T) was > 100 µM (inactive) and the GI50 (SNB-75) was 88.5 µM (inactive). For the same compound, the GI50 (IGROV-1) was > 100 µM (inactive), the GI50 (RXF 393) was > 100 µM (inactive) and the GI50 (786-0) was 16.2 µM (inactive). The GI50 (MCF7) was 1.88 µM (inactive), the GI50 (NCI-H522) was 17.5 µM (inactive) and the GI50 (UACC-257) was 44.3 µM (inactive). For the same compound, the GI50 (CCRF-CEM) was 21.6 µM (inactive), the GI50 (DU-145) was 72.3 µM (inactive) and the GI50 (A549) was > 100 µM (inactive). The GI50 (NCI-H460) was > 100 µM (inactive), the GI50 (Malme-3M) was 16.3 µM (inactive) and the GI50 (BT-549) was > 100 µM (inactive). The GI50 (M14) was 16.7 µM (inactive), the GI50 (SK-OV-3) was > 100 µM (inactive) and the GI50 (NCI-H226) was > 100 µM (inactive). The GI50 (U-251) was > 100 µM (inactive), the GI50 (LOX IMVI) was 15.4 µM (inactive) and the GI50 (CAKI-1) was 19.1 µM (inactive). For the same compound, the GI50 (TK-10) was 20.8 µM (inactive), the GI50 (COLO 205) was 42.1 µM (inactive) and the GI50 (SK-MEL-2) was 42.4 µM (inactive). For the same compound, the GI50 (MOLT-4) was 19.8 µM (inactive), the GI50 (SK-MEL-5) was 51.1 µM (inactive) and the GI50 (SF-539) was > 100 µM (inactive). For the same compound, the GI50 (NCI/ADR-RES) was > 100 µM (inactive), the GI50 (T47D) was > 100 µM (inactive) and the GI50 (HCC 2998) was 53 µM (inactive). For the same compound, the GI50 (UACC-62) was 31.6 µM (inactive), the GI50 (NCI-H23) was 59.8 µM (inactive) and the GI50 (RPMI-8226) was 20.3 µM (inactive). For the same compound, the GI50 (PC-3) was 75.3 µM (inactive), the GI50 (SF-268) was > 100 µM (inactive) and the GI50 (HL-60) was 19.5 µM (inactive). For the same compound, the GI50 (HT-29) was 80.2 µM (inactive), the GI50 (ACHN) was 38.9 µM (inactive) and the GI50 (OVCAR-5) was 77.4 µM (inactive). The GI50 (HOP-92) was 18.5 µM (inactive), the GI50 (UO-31) was 18.8 µM (inactive) and the GI50 (A498) was 42.2 µM (inactive). For the same compound, the GI50 (HCT-116) was 17.9 µM (inactive), the GI50 (SNB-19) was 46.3 µM (inactive) and the GI50 (SR) was 4.29 µM (inactive). For the same compound, the GI50 (SK-MEL-28) was 95.9 µM (inactive), the GI50 (HCT-15) was 17.1 µM and the GI50 (K562) was 29 µM (inactive). For the same compound, the GI50 (KM12) was 45.5 µM (inactive) and the GI50 (MDA-MB-231) was 17.9 µM (inactive).
